Data published in US20060134206A1, “Oral compositions for treatment of diseases” (priority 2003, published 2006).

What was measured:
[1] = tested on: human vascular ATP-dependent K+ channels; conditions: cited from earlier work
[2] = allows once daily treatment; cited from earlier work
[3] = In-house study: metformin co-administered with propantheline; format: in vivo; conditions: compared with metformin alone
[4] = oral, conventional metformin; cited from earlier work
[5] = cited from earlier work
[6] = tested on: type 2 diabetes patients; conditions: overweight type 2 diabetes patients assigned metformin; microvascular and macrovascular; cited from earlier work
[7] = tested on: people with diabetes; conditions: versus placebo, cited from earlier work

What does the source list for `CCC1=C(C)CN(C(=O)NCCc2ccc(S(=O)(=O)NC(=O)N[C@H]3CC[C@H](C)CC3)cc2)C1=O` [glimepiride]?
effect on human vascular ATP-dependent K+ channels [1]: no effect; long life [2]: 9 h

Which AUC [3] does the source give for `CN(C)C(=N)N=C(N)N` [metformin] here?
The AUC was “increased”.

What about the Tmax [3] of the same compound?
The Tmax was “delayed”.

And the “time period over which therapeutically beneficial plasma levels were maintained” value [3]?
The value was “extended”.

And the “gastrointestinal absorption apparently complete (time after ingestion)” value [4]?
Its value is at most 6 h.

What about the drug in plasma ([5]; drug perfused into the colon) of the same compound?
The drug in plasma was “not detectable”.

And the “area under the plasma concentration-time profile, jejunum versus ileum perfusion” value ([5]; perfusion into jejunum compared with ileum)?
Its value is 2.5 fold.

What about the “relative risk reduction of developing any diabetes related end points” value [6] of the same compound?
The value was 32%.

Which results are given for `CCOC(=O)[C@H](CCc1ccccc1)N[C@@H](C)C(=O)N1[C@H](C(=O)O)C[C@@H]2CCC[C@@H]21` [ramipril]?
lowering of relative risk of a major cardiovascular event (myocardial infarction, stroke or cardiovascular death) ([7]; 3,577 people with diabetes, 4.5 years): 25%; lowering of absolute risk of a major cardiovascular event ([7]; 3,577 people with diabetes): 4.5%; absolute risk reduction of overt nephropathy ([7]; people with diabetes): 2.0%; reduction of relative risk of overt nephropathy ([7]; people with diabetes): 24%
